In publication PMC7419507, “In vitro Cas9-assisted editing of modular polyketide synthase genes to produce desired natural product derivatives” (Nature Communications, 2020):
“And” between values parts separate entries of the source, which are not always exact repeats. Identical values can stand only once.

How the values were obtained:
FKBP12 and mTOR = target: T1, FKBP12 and mTOR (Homo sapiens, UniProt P42345+P62942); assay: Fluoppi analysis: induction of FKBP12-mTOR complex formation in transfected HeLa cells; format: cell-based; conditions: for Foci intensity: raw data, one replicate per line
T1 construct: host or cells: HeLa cells
T1 sequence (P42345 2025-2114 limits assumed): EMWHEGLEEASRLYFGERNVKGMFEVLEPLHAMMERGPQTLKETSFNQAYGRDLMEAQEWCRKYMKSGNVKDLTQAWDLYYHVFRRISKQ
T1 sequence (P62942 whole entry): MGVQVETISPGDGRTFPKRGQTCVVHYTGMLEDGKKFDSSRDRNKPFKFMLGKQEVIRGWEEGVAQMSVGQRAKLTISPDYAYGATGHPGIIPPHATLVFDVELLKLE
Method: Fluoppi harbours a tetrameric fluorescent protein hAG tag and an oligomeric assembly helper Ash tag to create detectable fluorescent foci in cells when there are interactions between two proteins fused to each tag[32].
HeLa cells were maintained in DMEM (Fujifilm Wako, Osaka, Japan) supplemented with 10% FBS (Thermo Fisher Scientific, MA, USA) and 1% of Penicillin-Streptomycin (Thermo Fisher Scientific) in a humidified incubator with 5% CO2 at 37 °C. Harvested cells were plated at 1 × 10^6 cells/well in 6-well plate and incubated for 6 h. Then each 1.25 µg of phAG-mTOR and pAsh-FKBP12 (Medical and Biological Laboratories Co., Ltd., Aichi, Japan) was co-transfected with Lipofectamine 2000 reagent (Thermo Fisher Scientific) overnight. Next day, transfected cells were harvested and seeded in 384-well optical-bottom microplate (PerkinElmer, MA, USA) at a density of 3000 cells/well. After the 24 h incubation at 37 °C, cells were treated with different concentrations of compounds for 1 h. Cells were then fixed with 4% paraformaldehyde and stained with 1 µg/ml of Hoechst33342 (Thermo Fisher Scientific). Cell images of 9 visual fields/well were acquired with ×20 objective lens in Opera Phenix High-Content Screening System (PerkinElmer) and analysed by Harmony4.9 software (PerkinElmer). Because protein-protein interactions are quantified by measuring the aggregation of fluorescent elements in foci, fluorescent intensity in foci was normalised by total fluorescent intensity in each cell. EC50 values were calculated using TIBCO Spotfire 10.3 software (PerkinElmer).

[1] = Cytotoxicity assay (CellTiter-Glo, 72 h), SKOV-3; format: cell-based, human; conditions: human
Method: (§1) Jurkat cells were cultured in RPMI1640 medium supplemented with 10% foetal bovine serum, penicillin (50 U/ml), streptomycin (50 μg/ml), and Glutamax. SKOV-3 cells were cultured in DMEM medium supplemented with 10% fetal bovine serum, penicillin (50 U/ml), and streptomycin (50 μg/ml). MESO-1 cells were cultured in RPMI1640 medium supplemented with 10% fetal bovine serum, penicillin (50 U/ml), and streptomycin (50 μg/ml). All cell lines were seeded in a 384-well plate at a density of 1000 cells/well in 20 μl of media and incubated at 37 °C in a humidified incubator with 5% CO2. After 4 h, 2-fold dilution samples resolved in DMSO were added to the cell culture at the concentration of 0.5% (0.1 μl) and incubated for 72 h. Cell viabilities were measured using a CellTiter-Glo luminescent cell viability assay and EnVision multilabel plate reader.

[2] = test system: human ovarian adenocarcinoma SKOV-3 cells; assay: Cytotoxicity assay (CellTiter-Glo, 72 h), SKOV-3; format: cell-based; conditions: raw replicate data
Method: as §1

PPI-inducing (binding enhancing) activity between FKBP12 and mTOR compared with rapamycin (1), in words (FKBP12 and mTOR; Fluoppi): relatively weaker activities | EC50 (FKBP12 and mTOR; Fluoppi, HeLa cells, 1 h treatment, three independent biological replicates, read-out: EC50, induction of the formation of FKBP-mTOR complex): 38 nM | Foci intensity (FKBP12 and mTOR; conc 9.53674e-5 uM): 0.01132 and 0.0225 and 0.02884 | Foci intensity (FKBP12 and mTOR; conc 0.000190735 uM): 0.02797 and 0.01973 and 0.01419 | Foci intensity (FKBP12 and mTOR; conc 0.00038147 uM): 0.04487 and 0.01438 and 0.009614 | Foci intensity (FKBP12 and mTOR; conc 0.000762939 uM): 0.009583 and 0.01833 and 0.008004 | Foci intensity (FKBP12 and mTOR; conc 0.00152588 uM): 0.008334 and 0.01713 and 0.01044 | Foci intensity (FKBP12 and mTOR; conc 0.00305176 uM): 0.03307 and 0.01421 and 0.0165 | Foci intensity (FKBP12 and mTOR; conc 0.00610352 uM): 0.02498 and 0.01872 and 0.01859 | Foci intensity (FKBP12 and mTOR; conc 0.012207 uM): 0.05798 and 0.0563 and 0.05141 | Foci intensity (FKBP12 and mTOR; conc 0.0244141 uM): 0.05792 and 0.05718 and 0.05874 | Foci intensity (FKBP12 and mTOR; conc 0.0488281 uM): 0.2264 and 0.3107 and 0.3692 | Foci intensity (FKBP12 and mTOR; conc 0.0976562 uM): 0.3743 and 0.3092 and 0.3931 | Foci intensity (FKBP12 and mTOR; conc 0.195312 uM): 0.3634 and 0.4076 and 0.3212 | Foci intensity (FKBP12 and mTOR; conc 0.390625 uM): 0.4389 and 0.407 and 0.4337 | Foci intensity (FKBP12 and mTOR; conc 0.78125 uM): 0.46 and 0.2978 and 0.3103 | Foci intensity (FKBP12 and mTOR; conc 1.5625 uM): 0.3578 and 0.3604 and 0.4124 | Foci intensity (FKBP12 and mTOR; conc 3.125 uM): 0.4619 and 0.4071 and 0.4306 | Foci intensity (FKBP12 and mTOR; conc 6.25 uM): 0.3337 and 0.3579 and 0.3756 | Foci intensity (FKBP12 and mTOR; conc 12.5 uM): 0.4107 and 0.3542 and 0.4482 | Foci intensity (FKBP12 and mTOR; conc 25 uM): 0.3853 and 0.4351 and 0.4313 | Foci intensity (FKBP12 and mTOR; conc 50 uM): 0.3983 and 0.3475 and 0.366
SMILES: COC1CC2CCC(C)C(O)(O2)C(=O)C(=O)N2CCCCC2C(=O)OC(C(C)CC2CCC(O)C(OC)C2)CCC(C)C=C(C)C(O)C(OC)C(=O)C(C)CC(C)C=CC=CC=C1C (stereo not drawn) [Compound 16, 32-desketorapamycin]
viability at 72 h ([1]; SKOV-3 cells (ovarian adenocarcinoma), SKOV-3 cells, 72 h, read-out: Plateau level of cell viability in the dose-response curve): ~60% | viability at 72 h, 9.53674e-05 uM ([1]; SKOV-3 cells (ovarian adenocarcinoma), conc 9.53674e-5 uM, raw replicate data, read-out: SKOV3 viability (%)): 102% | viability at 72 h, 0.000190735 uM ([1]; SKOV-3 cells (ovarian adenocarcinoma), conc 0.000190735 uM, raw replicate data, read-out: SKOV3 viability (%)): 96.2% | viability at 72 h, 0.00038147 uM ([1]; SKOV-3 cells (ovarian adenocarcinoma), conc 0.00038147 uM, raw replicate data, read-out: SKOV3 viability (%)): 97.4% | viability at 72 h, 0.000762939 uM ([1]; SKOV-3 cells (ovarian adenocarcinoma), conc 0.000762939 uM, raw replicate data, read-out: SKOV3 viability (%)): 84.9% | viability at 72 h, 0.00152588 uM ([1]; SKOV-3 cells (ovarian adenocarcinoma), conc 0.00152588 uM, raw replicate data, read-out: SKOV3 viability (%)): 77.3% | viability at 72 h, 0.00305176 uM ([1]; SKOV-3 cells (ovarian adenocarcinoma), conc 0.00305176 uM, raw replicate data, read-out: SKOV3 viability (%)): 68.9% | viability at 72 h, 0.00610352 uM ([1]; SKOV-3 cells (ovarian adenocarcinoma), conc 0.00610352 uM, raw replicate data, read-out: SKOV3 viability (%)): 59% | viability at 72 h, 0.012207 uM ([1]; SKOV-3 cells (ovarian adenocarcinoma), conc 0.012207 uM, raw replicate data, read-out: SKOV3 viability (%)): 61.7% | viability at 72 h, 0.0244141 uM ([1]; SKOV-3 cells (ovarian adenocarcinoma), conc 0.0244141 uM, raw replicate data, read-out: SKOV3 viability (%)): 60% | viability at 72 h, 0.0488281 uM ([1]; SKOV-3 cells (ovarian adenocarcinoma), conc 0.0488281 uM, raw replicate data, read-out: SKOV3 viability (%)): 59.3% | viability at 72 h, 0.0976562 uM ([1]; SKOV-3 cells (ovarian adenocarcinoma), conc 0.0976562 uM, raw replicate data, read-out: SKOV3 viability (%)): 58.2% | viability at 72 h, 0.195312 uM ([1]; SKOV-3 cells (ovarian adenocarcinoma), conc 0.195312 uM, raw replicate data, read-out: SKOV3 viability (%)): 56.3% | viability at 72 h, 0.390625 uM ([1]; SKOV-3 cells (ovarian adenocarcinoma), conc 0.390625 uM, raw replicate data, read-out: SKOV3 viability (%)): 55.6% | viability at 72 h, 12.5 uM ([1]; SKOV-3 cells (ovarian adenocarcinoma), conc 12.5 uM, raw replicate data, read-out: SKOV3 viability (%)): 51.2% | viability at 72 h, 25 uM ([1]; SKOV-3 cells (ovarian adenocarcinoma), conc 25 uM, raw replicate data, read-out: SKOV3 viability (%)): 45.3% | viability at 72 h, 50 uM ([1]; SKOV-3 cells (ovarian adenocarcinoma), conc 50 uM, raw replicate data, read-out: SKOV3 viability (%)): 39.9% | viability at 72 h, 0.78125 uM ([1]; SKOV-3 ovarian adenocarcinoma cells, conc 0.78125 uM, raw replicate data, read-out: SKOV3 viability (%)): 57.3% | viability at 72 h, 1.5625 uM ([1]; SKOV-3 ovarian adenocarcinoma cells, conc 1.5625 uM, raw replicate data, read-out: SKOV3 viability (%)): 55% | viability at 72 h, 3.125 uM ([1]; SKOV-3 ovarian adenocarcinoma cells, conc 3.125 uM, raw replicate data, read-out: SKOV3 viability (%)): 57.8% | viability at 72 h, 6.25 uM ([1]; SKOV-3 ovarian adenocarcinoma cells, conc 6.25 uM, raw replicate data, read-out: SKOV3 viability (%)): 57% | SKOV3 viability (%) ([2]; conc 9.53674e-5 uM): 103.5% and 99.3% | SKOV3 viability (%) ([2]; conc 0.000190735 uM): 92.3% and 95.8% | SKOV3 viability (%) ([2]; conc 0.00038147 uM): 95.4% and 93.0% | SKOV3 viability (%) ([2]; conc 0.000762939 uM): 86.5% and 80.1% | SKOV3 viability (%) ([2]; conc 0.00152588 uM): 73.2% and 83.0% | SKOV3 viability (%) ([2]; conc 0.00305176 uM): 64.2% and 71.1% | SKOV3 viability (%) ([2]; conc 0.00610352 uM): 65.5% and 65.6% | SKOV3 viability (%) ([2]; conc 0.012207 uM): 60.5% and 55.5%
